Measurements: US4011330A, “Vincaminic acid amides” (Synthelabo, priority 1974, dated 1977)
Like-named read-outs stand apart in the source and are kept apart here.

Columns and labels:
[1] = Solubility in water (remark in preparation example); format: physicochemical; conditions: base
mice of strain CD1 = assay: Anoxia test on mice under low (oxygen) pressure conditions; format: in vivo; conditions: Mus musculus, ip, intraperitoneally 10 minutes before the test, 190 mm of mercury (5.25% of oxygen), read-out: MAD (mean active dose, the dose which increases the survival time by 100%)
Protocol: Anoxia test on mice under low (oxygen) pressure conditions
Mice of strain CD1 are kept in an atmosphere depleted in oxygen, by producing a partial vacuum (190 mm of mercury, corresponding to 5.25% of oxygen).
The survival time of the animals is noted. This time is increased by agents capable of assisting tissue oxygenation and in particular cerebral oxygenation. The compounds studied are administered in several doses intraperitoneally 10 minutes before the test. The percentage increases in the survival time relative to the values obtained with control animals are calculated. The mean active dose (MAD), the dose which increases the survival time by 100%, is determined graphically.

[2] = Acute toxicity (LD50) in mice; format: in vivo; conditions: mouse, in vivo, mice, compounds tested in a solution containing ascorbic acid; for LD50 at 168 h: oral, mortality over 7 days
Protocol: (§1) The compounds were administered orally to mice of the CD1 strain. The mortality was recorded over 7 days and the 50% lethal doses (LD50) were determined graphically.
(§2) The toxicities on intraperitoneal and intravenous administration were determined in accordance with the method of Miller and Taniter (Proc. Soc. Exp. Biol. Med. 1944- vol 57, page 261).

mice of the CD1 strain = assay: Acute toxicity (LD50) in mice; format: in vivo
Protocol: as §1, §2

[3] = ip, intraperitoneal, read-out: LD50 intraperitoneal
[4] = intravenous, read-out: LD50 intravenous

| SMILES | water solubility [1] | ED (100% increase in survival time) (mice of strain CD1) | LD50 [2, 3] | LD50 [2, 4] | LD50 at 168 h [2] | resorption by the digestive tract (mice of the CD1 strain; inferred from oral/intravenous LD50 ratio) | ratio of the LD50 for oral administration to the LD50 for intravenous administration (mice of the CD1 strain; mice, oral/intravenous) |
| --- | --- | --- | --- | --- | --- | --- | --- |
| CCC12CCCN3CCc4c(n(c5ccccc45)C(C(=O)NC4CCCCC4)C1)C32 (stereo not shown) [S.L.D. 135, N-cyclohexyldesoxyvincaminamide] | water-insoluble |  |  |  |  |  |  |
| CCC12CCCN3CCc4c(n(c5ccccc45)C(C(N)=O)C1)C32 (stereo not shown) [SLC 156, Desoxyvincaminamide] |  | 1.8 mg/kg | 210 mg/kg | 109 mg/kg | 607 mg/kg |  |  |
| CCC12CCCN3CCc4c(n(c5ccccc45)C(C(=O)NC4CC4)C1)C32 (stereo not shown) [SLD 105, N-cyclopropyldesoxyvincaminamide] | water-insoluble | 1 mg/kg | 165 mg/kg | 76 mg/kg | 290 mg/kg | good | low |
| CCC12C=C(C(=O)NC3CC3)n3c4c(c5ccccc53)CCN(CCC1)C42 (stereo not shown) [SLD 121, N-monocyclopropylapovincaminamide] |  | 2.5 mg/kg |  |  |  |  |  |
| CCC12CCCN3CCc4c(n(c5ccccc45)C(C(=O)NC4CCC4)C1)C32 (stereo not shown) [SLD 142, N-cyclobutyldesoxyvincaminamide] |  | 0.5 mg/kg |  |  |  |  |  |
| CC[C@]12CCCN3CCc4c(n(c5ccccc45)[C@@](O)(C(=O)OC)C1)[C@@H]32 [Vincamine, reference compound] |  | 8 mg/kg |  | 75 mg/kg |  |  |  |
